Assay results: patent US6291199A, “Human phosphodiesterase type IVC, and its production and use” (Celltech Therapeutics Limited, priority 1994, dated 2001)
Like-named read-outs stand apart in the source and are kept apart here.

Assays:
PDE IV D = conditions: read-out: IC50 for rolipram inhibition; literature; cited from earlier work
PDE IVA [1] = conditions: in situ, CHO + beta 2 adrenergic receptor + PDE IVA, 10 uM inhibitor
Procedure: Transfected cells were harvested with non-enzymatic cell dissociation reagent (Sigma) washed three times and re-suspended in Dulbecco's phosphate buffered saline containing 0.1% BSA and 0.1% glucose (DPBS+). The cells were incubated with 10 uM inhibitor (or solvent control, 0.1% DMSO) in DPBS+for 10 min at 37° C. The cell suspension was stimulated with isoproterenol (0.001-1 uM) for 2 min. The cells were pelleted at 12000 g and resuspended in 400 uL of boiling assay buffer 1s (DuPont cAMP measurement kit). The samples were heated in a boiling water bath for 10 min and frozen before being assayed for cAMP using a commercial cAMP radioimmunoassay (DuPont).

PDE IV B = conditions: read-out: IC50 for rolipram inhibition; literature; cited from earlier work
PDE IVA [2] = assay: Inhibition of recombinant human PDE IVA (cAMP hydrolysis); format: biochemical; conditions: enzyme from CHO cell lysates
PDE IV A = conditions: read-out: IC50 for rolipram inhibition; literature; cited from earlier work
recombinant PDE IV = conditions: Torphy et al. 1992; cited from earlier work
HL60 cells = assay: RT.PCR of PDE IV isoform mRNAs in Bt2 cAMP stimulated HL60 cells; format: cell-based, human; conditions: HL-60 cells
Procedure: (§1) To identify a source of gene C mRNA, a number of cell lines were assayed for isoform mRNAs by reverse transcription coupled to polymerase chain reaction (RT.PCR). Total RNA was prepared using RNAzol (Biogenesis) and polyA+ mRNA selected by affinity chromatography using oligodT cellulose. 50 ng of first strand cDNA prepared by reverse transcriptase was amplified with the following pairs of gene specific primers for 40 cycles using the conditions, 94° C. 1 min, 55° C. 1 min, 72° C. 3 min.
(§2) The results of RT.PCR using the human gene primers to detect isoform mRNAs in both human tissue culture cells and rat tissues confirms that PDE IV mRNAs are widely distributed though the apparent levels of each isoform mRNA varies. Gene C mRNA appears to be more abundant than A,B, or D in cells derived from dorsal root ganglia and testes in rat. This latter result is consistent with data reported previously by Swinnen et al. (1989) ibid.

SKNSH cells = assay: RT.PCR of PDE IV isoform mRNAs in Bt2 cAMP stimulated SKNSH cells; format: cell-based, human; conditions: SKN.SH cells
Procedure: as §1, §2

T lymphocytes = conditions: relative to other enantiomer; Sommer et al. 1995; cited from earlier work
PDE IVA [3] = assay: Inhibition of recombinant human PDE IVA (cAMP hydrolysis); format: biochemical
Procedure: Isolation of cDNA Clones for Gene A
A partial cDNA for gene A was isolated by PCR from a cDNA library prepared from PMA stimulated U937 cells using published sequence information (Livi G. et al. (1990) ibid)). Subsequently a conserved region probe form this cDNA was used to isolate a full length cDNA clone from a human frontal cortex cDNA library by hybridisation and washing at moderate stringency (final wash 2×SSC, 0.5% SDS at 60° C.).
The full length gene for PDE IVA was introduced into pEE7 and pYES vectors for expression in COS and yeast cells respectively.
Recombinant PDE IV enzymes were produced in COS cells by transient expression as described by Whittle N. et al. [(1987) Prot. Engineering 1 499-505]. Briefly […] cells/ml were transfected with 10 ug of plasmid. After 3 days in culture cells were washed with PBS and lysed by brief sonciation in 50 mM TES buffer, pH 7.6, (N. tris[hydroxymethyl]methyl) 2-aminoethane sulphonic acid containing proteases inhibitors (50 uM leupeptin, 1 uM pepstatin, 1 um phenylmethylsulphonylfluoride, 2 uM benzamidine). The cell homogenate was centrifuged ×12000 g for 10 min. and assayed for PDE IV activity.
For expression of PDE IVA and C in yeast cells, the two genes were inserted into the vector pYES (InVitrogen) as either Hind3/Xba1 (gene A) or EcoR1 (gene C) fragments isolated from pDEFC17 and pDEU7 vectors respectively. The resulting plasmids were designated as pDEFC 32 and pDEU8 respectively. Yeast cells (B7542: alpha, ura-3,trp1+, Leu2delta, pep4: His3, prBdelta 1.6R can 1, gal) were transformed with pDEFC32 and pDEU8 vectors using the lithium acetate method (Ito H. et al. (1983) J.Bacteriol. 51 163-168). Ura3 positive prototrophs were isolated and grown at 30° C. to an OD600 =1.0 in minimal media containing 2% glucose and […] leucine. Cells were recovered by centrifugation, washed and resuspended at OD600 =0.5 in minimal media containing 2% galactose to induce PDE IV expression. At an OD600 =1.0 cells were harvested, washed and broken in TES buffer plus proteases (see above) by milling with glass beads (425-600 um) at 4° C. The homogenate was clarified by centrifugation at 100,000 g for 30 mins at 4° C.
Enzyme reactions were carried out at pH 7.6 in 50 mM TES buffer containing 10 mM MgCl2, 3',5' cAMP (0.1 uM ^3 H-labelled 0.74-1.1 TBq/mmol) 5'AMP (2.5 uM ^14 C, 1.85-2.2 GBq/mmol) for 30 min at 30° C. Sufficient enzyme preparation was added to hydrolyse not more than 20% of substrate under these conditions. […] Reactions were stopped by rapid inactivation of enzyme by addition of trifluoroacetic acid to a final concentration of 1%. Substrate and product of reaction were separated as described by Smith et al. [(1993) Analyt. Biochem. 214 355-357] and the [^3 H] 5'AMP product analysed by scintillation counting. Correction for losses of [^3 H] […] during separation was made by reference to [^14 C] 5'AMP included in the reaction mixture.

[4] = tested on: binding sites in the rodent forebrain tissue; conditions: Schmiechen et al.; Kaulen et al. 1989; cited from earlier work
[5] = tested on: beta 2 adrenergic receptor; conditions: CHO cells expressing human beta2 adrenergic receptor; isoproterenol 0.001-1 uM, 2 min
Description: Isolation of Human Beta 2 Adrenergic Receptor Gene.
The human beta 2 adrenergic receptor gene (Kobilka B. et al. (1987) J.Biol. Chem. 262 7321-7327) was isolated from HL-60 cells genomic DNA by PCR using the following primers: […]
The plasmid was named pRO1 44.

asthma = conditions: in vivo; cited from earlier work

In the case of `COc1ccc(C2CNC(=O)C2)cc1OC1CCCC1` (racemic) [Rolipram], the IC50 (PDE IV D) is given as 200 to 500 nM, the “reversal by rolipram of the prevention of cAMP accumulation, in words” value (PDE IVA [1]) is given as “reversed” and the IC50 (PDE IV B) is given as 200 to 500 nM. For the same compound, the IC50 (PDE IVA [2]) was 287 nM, the IC50 (PDE IV A) was 200 to 500 nM and the “high affinity binding of rolipram, in words” value (recombinant PDE IV) was “stereoselectivity for high affinity binding”.

With `CCCC(=O)Nc1ncnc2c1ncn2[C@@H]1O[C@@H]2COP(=O)(O)O[C@H]2[C@H]1OC(=O)CCC` [Bt2 CAMP] the “levels of PDE IV isoform mRNAs, in words” value (HL60 cells) was “levels of C and D but not A and B are elevated” and the “levels of PDE IV isoform mRNAs, in words” value (SKNSH cells) was “levels of C and D but not A and B are elevated”.

In the case of `COc1ccc([C@@H]2CNC(=O)C2)cc1OC1CCCC1` [R-rolipram], the “effectiveness in suppression of TNF release” value (T lymphocytes) is given as “approximately 50 times”, the IC50 (PDE IVA [3]; enzyme from COS cells, read-out: IC50, PDE IVA) is given as 292 nM and the IC50 (PDE IVA [3]; enzyme from yeast, read-out: IC50, Yeast, A) is given as 298 nM. For the same compound, the IC50 (PDE IVA [2]) was 251 nM and the “affinity for binding sites over S-rolipram, in words” value [4] was “higher affinity”.

With `CC(C)NCC(O)c1ccc(O)c(O)c1` (stereo not drawn) [isopreterenol] the “cAMP levels, in words” value [5] was “dose-dependent increase in cAMP levels”.

In the case of `Cn1c(=O)c2[nH]cnc2n(C)c1=O` [theophylline], the “effect in asthma, in words” value (asthma) is listed as “has been shown to have a therapeutic effect”.
